Patent US20260224520A1, “ABC TRANSPORTER EXPRESSION PROMOTING AGENT, CHOLESTEROL EXCRETION PROMOTING AGENT, INFLAMMATORY CYTOKINE PRODUCTION INHIBITING AGENT, ANTI-INFLAMMATORY AGENT, AND ARTERIOSCLEROSIS PREVENTING AGENT” (MEIJI CO., LTD., priority 2022, published 2026)
Entries after “also recorded” stand apart in the source; their conditions may differ.

Experiments:
[1] = test system: Human macrophage-like THP-1 cells; experiment: Cholesterol excretion promoting activity of fatty acids, fluorometry, 24 h pre-culture with the substance; type: cell-based; details: for cholesterol excretion promoting activity (in words): conclusion from Tables 5A and 8
Protocol: Human macrophage-like THP-1 cells were seeded in a 96-well plate so as to be 2.0×10^5 cells/well, and allowed to differentiate for 72 hours. The medium was then replaced with RPMI 1640 medium containing 0.02% by mass of bovine serum albumin (BSA), 10 to 40 μg/mL (final concentration in the well) of 10-hydroxypalmitic acid (Angene) was added, and the cells were cultured for 24 hours. The medium was then replaced with Dulbecco's Modified Eagle Medium (DMEM) containing 0.02% by mass of BSA and 6 mM of sodium taurocholate, and the medium was recovered after 4 hours. The level of cholesterol excreted from the cells (the cholesterol level in the recovered medium) was measured in the same manner as in Example 1 to evaluate the cholesterol excretion promoting activity of 10-hydroxypalmitic acid (n=3).
In the same manner as in Example 5A, the cholesterol excretion promoting activities of 10-hydroxypalmitic acid and other hydroxypalmitic acids (2-hydroxypalmitic acid (Tokyo Chemical Industry Co., Ltd.), 3-hydroxypalmitic acid (Sigma-Aldrich), 16-hydroxypalmitic acid (Tokyo Chemical Industry Co., Ltd.), and 10-hydroxypalmitic acid), which may be contained in Camembert cheese, as well as palmitic acid to which no hydroxyl group was added (Sigma) were evaluated (n=6 to 11).

[2] = test system: Human macrophage-like THP-1 cells; experiment: Cholesterol excretion promoting activity in an inflammation-induced state, fluorometry (Amplex Red); type: cell-based; details: for Cholesterol excretion level (Average # standard deviation): DMSO-control = 1, n=4
Protocol: Human macrophage-like THP-1 cells were seeded in a 24-well plate so as to be 1.0×10^6 cells/well, and allowed to differentiate for 72 hours. The medium was then replaced with RPMI 1640 medium containing: 0.02% by mass of bovine serum albumin (BSA); either dimethyl sulfoxide (DMSO) or 20 μg/mL of 10-hydroxypalmitic acid; and either 50 μg/mL of oxidized LDL (oxLDL) (Invitrogen), 50 μg/mL of acetylated LDL (acLDL) (Invitrogen), 5 μM of T0901317+5 μM of 9-cis-retinoic acid (T0+RA), or 1 μg/mL of LPS (Sigma), or replaced with RPMI 1640 medium (control) containing: 0.02% by mass of BSA; and either DMSO or 20 μg/mL 10-hydroxypalmitic acid, but not containing any of oxLDL, acLDL, T0+RA, and LPS, and the macrophage-like cells were cultured for 24 hours to induce inflammation. The medium was then replaced with Dulbecco's Modified Eagle Medium (DMEM) containing 0.02% by mass of BSA and 6 mM of sodium taurocholate, and the cells were cultured for 4 hours. The medium was then recovered, and the level of cholesterol excreted from the cells (the cholesterol level in the recovered medium) was measured by fluorometry using Amplex Red to evaluate the cholesterol excretion promoting activity of 10-hydroxypalmitic acid in an inflammation-induced state (n=4).

ABCA1 [3] = experiment: ABCA1 protein expression level by Western blotting in THP-1 cells; type: cell-based, Human; details: 20 μg/mL, 24 h; corrected with actin; DMSO = 1; n=3
Protocol: (§1) The ABCA1 and ABCG1 protein expression levels were evaluated. Specifically, cells cultured in the same manner as in Example 6 were recovered, SDS-PAGE and blotting were carried out using the 10% minigel shown in Table 7A and, after blocking, the protein expression levels were measured by Western blotting using a primary antibody (anti-mouse monoclonal ABCA1 (KM3110) or anti-rabbit polyclonal ABCG1 (H65) (Novus)) and anti-actin (Sigma) as a loading control (n=3). The protein expression levels were quantified with CS Analyzer 4 […]. The ABCA1 and ABCG1 protein expression levels were each corrected with the actin protein expression level.

ABCA1 [4] = experiment: ABCA1 mRNA expression level by real-time PCR in THP-1 cells; type: cell-based, Human; details: 20 μg/ml, 24 h; corrected with 18S ribosomal RNA; EtOH = 1; n=3
Protocol: (§2) Since the cholesterol excretion promoting activity of 10-hydroxypalmitic acid was confirmed, the effect of 10-hydroxypalmitic acid on ABC transporters was evaluated. Specifically, human macrophage-like THP-1 cells were seeded in a 24-well plate so as to be 1.0×10^6 cells/well, and allowed to differentiate for 72 hours. The medium was then replaced with RPMI 1640 medium containing 0.02% by mass of bovine serum albumin (BSA), 20 μg/mL (final concentration in the well) of 10-hydroxypalmitic acid was added, the cells were cultured for 24 hours, then mRNA was extracted using RNeasy Minikit (Qiagen), reverse transcription was carried out using ReverTra Ace (Registered trademark) qPCR RT Master Mix with gDNA Remover (Toyobo), and the ABCA1 and ABCG1 mRNA expression levels were measured by real-time PCR using Thermal Cycler Dice TP800 (Takara). 18S ribosomal RNA was used as a control gene. The ABCA1 and ABCG1 mRNA expression levels were each corrected with the mRNA expression level of the control gene, and the ABC transporter expression promoting activity of 10-hydroxypalmitic acid was evaluated (n=3).

IL-1 = IL-1 mRNA expression level by real-time PCR in THP-1 cells with or without inflammation induction; type: cell-based, Human; details: 24 h, DMSO-control = 1
Protocol: (§3) Human macrophage-like THP-1 cells were seeded in a 24-well plate so as to be 1.0×10^6 cells/well, and allowed to differentiate for 72 hours. The medium was then replaced with RPMI 1640 medium containing: 0.02% by mass of bovine serum albumin (BSA); either dimethyl sulfoxide (DMSO) or 20 μg/mL of 10-hydroxypalmitic acid; and either 50 μg/mL of oxidized LDL (oxLDL) (Invitrogen), 50 μg/mL of acetylated LDL (acLDL) (Invitrogen), 5 μM of T0901317+5 μM of 9-cis-retinoic acid (T0+RA), or 1 μg/mL of lipopolysaccharide (LPS) (Sigma), or replaced with RPMI 1640 medium (control) containing: 0.02% by mass of bovine serum albumin (BSA); and either DMSO or 20 μg/mL 10-hydroxypalmitic acid, but not containing any of oxLDL, acLDL, T0+RA, and LPS, and the macrophage-like cells were cultured for 24 hours to induce inflammation. The medium was then replaced with Dulbecco's Modified Eagle Medium (DMEM) containing 0.02% by mass of BSA and 6 mM of sodium taurocholate, and the cells were cultured for 4 hours. The cells were then recovered, and the mRNA expression levels of IL-1 and IL-6, which are inflammatory markers (inflammatory cytokines), were measured by real-time PCR in the same manner as in Example 6 (n=4 to 6).

[5] = test system: Human macrophage-like THP-1 cells; experiment: Cholesterol excretion promoting activity of 10-hydroxypalmitic acid by colorimetry; type: cell-based
Protocol: The cholesterol excretion promoting activity of 10-hydroxypalmitic acid was also examined by colorimetry. Specifically, human macrophage-like THP-1 cells were seeded in a 6-well plate so as to be 4.0×10^6 cells/well, and allowed to differentiate for 72 hours. The medium was then replaced with RPMI 1640 medium containing 0.02% by mass of bovine serum albumin (BSA), 20 μg/mL (final concentration in the well) of 10-hydroxypalmitic acid (Angene) was added, and the cells were cultured for 24 hours and then recovered. Lipids were then extracted using methanol and chloroform, and the level of cholesterol excreted from the cells (the cholesterol level in the recovered medium) was measured using a free cholesterol assay kit (Fujifilm Wako Pure Chemical Corporation) to evaluate the cholesterol excretion promoting activity of 10-hydroxypalmitic acid (n =3).

IL-6 = IL-6 mRNA expression level by real-time PCR in THP-1 cells with or without inflammation induction; type: cell-based, Human; details: 24 h, DMSO-control = 1
Protocol: as §3

ABCG1 [6] = experiment: ABCG1 mRNA expression level by real-time PCR in THP-1 cells; type: cell-based, Human; details: 20 μg/mL, 24 h; corrected with 18S ribosomal RNA; EtOH = 1; n=3
Protocol: as §2

ABCG1 [7] = experiment: ABCG1 protein expression level by Western blotting in THP-1 cells; type: cell-based, Human; details: 20 μg/mL, 24 h; corrected with actin; DMSO = 1; n=3
Protocol: as §1

[8] = same manner as Example 5A, concentration not given, EtOH = 1, n=6 to 11
[9] = 20 μg/mL with T0 + RA (5 μM each)
[10] = 20 μg/mL, Control (no inducer), n=4 to 6

## CCCCCCCCCCCCCCC(O)C(=O)O (stereo not drawn) [2-Hydroxypalmitic acid, 2-hydroxypalmitic acid, reference compound]
[1]; [8]
  Cholesterol excretion level (Average ± standard deviation): 0.970 ± 0.175 relative value

## CCCCCCCCCCCCCC(O)CC(=O)O (stereo not drawn) [3-Hydroxypalmitic acid, 3-hydroxypalmitic acid, reference compound]
[1]; [8]
  Cholesterol excretion level (Average ± standard deviation): 1.094 ± 0.271 relative value

## CCCCCCC(O)CCCCCCCCC(=O)O (stereo not drawn) [10-hydroxypalmitic acid]
[2]; 20 μg/mL with 1 μg/mL LPS
  Cholesterol excretion level (Average # standard deviation): 9.320 ± 3.477 relative value
[2]; 20 μg/mL with 50 μg/mL acLDL
  Cholesterol excretion level (Average # standard deviation): 1.821 ± 0.426 relative value
[2]; 20 μg/mL with 50 μg/mL oxLDL
  Cholesterol excretion level (Average # standard deviation): 2.389 ± 0.628 relative value
[2]; [9]
  Cholesterol excretion level (Average # standard deviation): 33.159 ± 10.920 relative value
[2]; 20 μg/mL, Control (no inducer)
  Cholesterol excretion level (Average # standard deviation): 3.588 ± 1.302 relative value
[2]; inflammation-induced state or ABC transporters induced by T0+RA, conclusion from Table 10
  cholesterol excretion promoting activity (in words): had a cholesterol excretion promoting activity
[1]; 10 μg/mL, 24 h, DMSO = 1, n=3
  Cholesterol excretion level (Average ± standard deviation): 1.553 ± 0.102 relative value
[1]; 20 μg/mL, 24 h, DMSO = 1, n=3
  Cholesterol excretion level (Average ± standard deviation): 1.685 ± 0.138 relative value
[1]; 30 μg/mL, 24 h, DMSO = 1, n=3
  Cholesterol excretion level (Average ± standard deviation): 2.313 ± 0.479 relative value
[1]; 40 μg/mL, 24 h, DMSO = 1, n=3
  Cholesterol excretion level (Average ± standard deviation): 1.872 ± 0.374 relative value
[1]
  cholesterol excretion promoting activity (in words): concentration-dependent cholesterol excretion promoting activity; also recorded: had a cholesterol excretion promoting activity
[1]; [8]
  Cholesterol excretion level (Average ± standard deviation): 1.331 ± 0.500 relative value
ABCA1 [3]
  ABCA1 protein expression level (Average ± standard deviation): 2.607 ± 0.559 relative value
ABCA1 [4]
  ABCA1 mRNA expression level (Average ± standard deviation): 2.870 ± 0.267 relative value
IL-1; 20 μg/mL with 1 μg/mL LPS
  IL-1 mRNA expression level (Average ± standard deviation): 0.450 ± 0.390 relative value
IL-1; 20 μg/mL with 50 μg/mL acLDL
  IL-1 mRNA expression level (Average ± standard deviation): 0.389 ± 0.067 relative value
IL-1; 20 μg/mL with 50 μg/mL oxLDL
  IL-1 mRNA expression level (Average ± standard deviation): 0.419 ± 0.184 relative value
IL-1; [9]
  IL-1 mRNA expression level (Average ± standard deviation): 0.185 ± 0.059 relative value
IL-1; [10]
  IL-1 mRNA expression level (Average ± standard deviation): 0.200 ± 0.046 relative value
[5]; 20 μg/mL, 24 h, DMSO = 1, n=3
  Cholesterol excretion level (Average ± standard deviation): 1.569 ± 0.317 relative value
[5]; conclusion from Table 5B
  cholesterol excretion promoting activity (in words): confirmed
IL-6; 20 μg/mL with 1 μg/mL LPS
  IL-6 mRNA expression level (Average ± standard deviation): 0.530 ± 0.107 relative value
IL-6; 20 μg/mL with 50 μg/mL acLDL
  IL-6 mRNA expression level (Average ± standard deviation): 0.363 ± 0.149 relative value
IL-6; 20 μg/mL with 50 μg/mL oxLDL
  IL-6 mRNA expression level (Average ± standard deviation): 0.167 ± 0.029 relative value
IL-6; [9]
  IL-6 mRNA expression level (Average ± standard deviation): 0.095 ± 0.050 relative value
IL-6; [10]
  IL-6 mRNA expression level (Average ± standard deviation): 0.104 ± 0.032 relative value
ABCG1 [6]
  ABCG1 mRNA expression level (Average ± standard deviation): 2.953 ± 0.195 relative value
ABCG1 [7]
  ABCG1 protein expression level (Average ± standard deviation): 2.541 ± 0.815 relative value

## O=C(O)CCCCCCCCCCCCCCCO [16-hydroxypalmitic acid]
[1]
  cholesterol excretion promoting activity (in words): had a cholesterol excretion promoting activity
[1]; [8]
  Cholesterol excretion level (Average ± standard deviation): 1.406 ± 0.982 relative value

## CCCCCCCCCCCCCCCC(=O)O [Palmitic acid, palmitic acid, reference compound]
[1]; [8]
  Cholesterol excretion level (Average ± standard deviation): 0.823 ± 0.268 relative value
